In ChEMBL document CHEMBL3399982, “Azachalcones: a new class of potent polyphenol oxidase inhibitors” (Bioorg Med Chem Lett, 2015) one finds inhibition, IC50 and Ki data, which are given here for 13 compounds.

Experiment [1] addresses T1, Tyrosinase (Agaricus bisporus) (UniProt O42713).
T1 sequence (whole entry): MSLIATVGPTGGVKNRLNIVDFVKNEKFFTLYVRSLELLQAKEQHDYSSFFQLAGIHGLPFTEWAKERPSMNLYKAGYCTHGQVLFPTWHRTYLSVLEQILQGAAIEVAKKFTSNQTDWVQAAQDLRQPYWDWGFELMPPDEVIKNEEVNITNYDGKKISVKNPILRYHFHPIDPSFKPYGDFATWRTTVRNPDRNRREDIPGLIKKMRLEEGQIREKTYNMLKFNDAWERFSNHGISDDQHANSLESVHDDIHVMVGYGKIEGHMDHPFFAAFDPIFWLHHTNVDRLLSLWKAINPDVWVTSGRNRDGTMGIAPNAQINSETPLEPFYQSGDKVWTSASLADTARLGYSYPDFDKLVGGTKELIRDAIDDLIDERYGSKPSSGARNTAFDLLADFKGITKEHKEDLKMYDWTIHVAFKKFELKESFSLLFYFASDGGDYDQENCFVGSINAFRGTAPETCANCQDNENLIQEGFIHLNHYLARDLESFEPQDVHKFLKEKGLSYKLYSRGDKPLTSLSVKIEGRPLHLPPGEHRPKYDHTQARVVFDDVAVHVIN
In words: Inhibition of mushroom tyrosinase assessed as inhibition of L-DOPA oxidase activity. As to conditions: concentration not given here.

For experiment [2], the target named is T2, Tyrosinase (Agaricus bisporus, UniProt O42713).
T2 sequence (O42713 whole entry): T1 sequence (whole entry)
In words: Competitive inhibition of mushroom tyrosinase assessed as inhibition of L-DOPA oxidase activity.

Experiment [3] has as its target T2, Tyrosinase.

As a reminder, the inhibition is the share of the control response that was lost under treatment. Take `O=C(/C=C/c1cccc([N+](=O)[O-])c1)c1ccccc1`: in experiment [1], the inhibition was 18%.

On to `O=C(/C=C/c1cccnc1)c1ccccc1O`, for which the inhibition in experiment [1] stood at 49.3%.

For the compound `CN(C)c1ccc(/C=C/C(=O)c2ccccn2)cc1`, the inhibition in experiment [1] was found to be 39.7%.

Consider `O=C(/C=C/c1ccc2ccccc2n1)c1ccccc1O`, for which the inhibition in experiment [1] came to 8.9%.

Take `O=C(/C=C/c1cnc2ccccc2c1)c1ccccc1O`: in experiment [1], the inhibition was 12.3%.

As for `COc1ccc(/C=C/C(=O)c2ccccn2)c(OC)c1`, in experiment [1], the inhibition was determined as 42.7%.

Regarding `CN(C)c1ccc(/C=C/C(=O)c2ccccc2O)cc1`, the inhibition in experiment [1] worked out at 27.2%.

One may read the IC50 as the concentration that inhibits the measured activity by half. A word on the Ki: it is a dissociation constant, usually derived from enzyme kinetics or from competition with a known ligand. Lower therefore signals a stronger hold on the target. Take `Oc1ccccc1C(O)/C=C/c1ccccn1` (configuration not stated): the IC50 in experiment [2] is 1700 nM. Moreover, the inhibition in experiment [1] was 80.2%. In experiment [3], the affinity, expressed as Ki, was 2620 nM.

Regarding `O=C(/C=C/c1ccccn1)c1ccccc1O`, the inhibition in experiment [1] turned out to be 56.8%.

`O=C(/C=C/c1cccc([N+](=O)[O-])c1)c1ccccc1O`: the inhibition in experiment [1] is 42.2%.

`O=C(/C=C/c1ccccn1)c1ccccc1`: the inhibition in experiment [1] is 34%.

Consider `O=C(/C=C/c1ccncc1)c1ccccc1O`, for which the inhibition in experiment [1] is 39.7%.

For the compound `Oc1ccccc1C(O)/C=C/c1ccncc1` (configuration not stated), in experiment [2], the IC50 is 2300 nM. For the same compound, the inhibition in experiment [1] was determined as 57.2%. In addition, the affinity in experiment [3], expressed as Ki, was 8100 nM.
